Laboratory results as given in publication PMC5046141, “Discovery of Isoquinolinoquinazolinones as a Novel Class of Potent PPARγ Antagonists with Anti-adipogenic Effects” (Scientific Reports, 2016).

Tests used:
3T3-L1 preadipocytes = assay: Oil Red O staining assay of adipocyte differentiation; type: cell-based, mouse; conditions: for inhibition at 25 µM: Mus musculus, 3T3-L1, relative absorbance from Oil Red O staining at 25 μM, read-out: Inhibitory activity (%) on adipocyte differentiation
Method: The GW9662-mediated inhibition of PPARγ was confirmed using an Oil Red O staining assay to measure adipocyte differentiation. To investigate whether the novel compounds could inhibit adipocyte differentiation, 3T3-L1 preadipocytes were incubated with differentiation medium (MDI; insulin, dexamethasone, and isobutyl methyl xanthine) in the presence of increasing concentrations of isoquinolinoquinazolinones. Adipogenesis was analyzed using Oil Red O staining after treatment with the compounds.
The mouse preadipocyte cell line 3T3-L1 was maintained at 37 °C in humidified air with 5% CO2. 3T3-L1 cells were cultured in Dulbecco’s modified Eagle medium (DMEM; Life Technologies) supplemented with 10% bovine serum (BS; Gibco Invitrogen, Carlsbad, California, USA) as growth medium. For adipocyte differentiation, cells were cultured for 2 days to full confluence in a 24-well plate and the growth medium was then replaced (day 0) with DMEM supplemented with 10% fetal bovine serum (FBS, Gibco Invitrogen, Carlsbad, California, USA), 5 μg/mL insulin (Sigma, St. Louis, Missouri, USA), 0.5 mM 3-isobutyl-1-methylxanthine (Sigma), and 1 μM dexamethasone (Sigma). After 48 h, the differentiation medium was replaced (day 2) with DMEM + 10% FBS containing 5 μg/mL insulin, and the cells were allowed to accumulate lipid droplets until experimental use.
The accumulation of lipids signifying the formation of adipocytes was observed by staining the differentiated cells with Oil Red O. Following differentiation, cells were washed twice with phosphate-buffered saline (PBS), fixed with 10% formalin for 60 min. Oil Red O stock solution (0.5%) was prepared in isopropanol and filtered in cellulose nitrate filters. Cells were stained with Oil Red O diluted 6:4 in water for 1 h at room temperature. Excess Oil Red O dye was washed off twice with distilled water and then dried. The stained lipid droplets within cells were visualized using an optical microscope and photographed with a digital camera at 100× magnification.

PPARγ2 = target: T1, PPARγ2 (Mus musculus, UniProt P37238); assay: PPRE-Luc luciferase reporter assay of PPARγ2-induced transcriptional activity in 3T3-L1 cells; type: cell-based
T1 construct: expressed in transfected cells; host or cells: 3T3-L1 (mouse preadipocytes), pCS4 CMV vector
T1 sequence (P37238 1-505): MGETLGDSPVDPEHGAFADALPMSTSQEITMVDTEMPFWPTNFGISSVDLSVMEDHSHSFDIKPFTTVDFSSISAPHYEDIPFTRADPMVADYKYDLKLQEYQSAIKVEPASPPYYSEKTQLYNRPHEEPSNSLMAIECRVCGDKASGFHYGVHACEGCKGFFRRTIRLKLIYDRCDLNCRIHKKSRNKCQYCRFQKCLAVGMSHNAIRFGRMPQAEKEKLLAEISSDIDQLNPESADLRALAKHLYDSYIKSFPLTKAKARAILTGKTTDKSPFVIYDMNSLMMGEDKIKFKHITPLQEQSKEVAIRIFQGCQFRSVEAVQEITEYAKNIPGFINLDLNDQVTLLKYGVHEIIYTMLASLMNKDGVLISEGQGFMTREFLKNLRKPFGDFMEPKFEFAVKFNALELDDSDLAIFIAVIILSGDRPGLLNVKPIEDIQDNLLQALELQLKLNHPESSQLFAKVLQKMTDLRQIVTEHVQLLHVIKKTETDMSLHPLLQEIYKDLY
Method: To analyze whether isoquinolinoquinazolinones inhibit the transactivation of PPARγ, 3T3-L1 cells were cotransfected with full-length PPARγ2 expression vector with a peroxisome proliferator response element (PPRE)-driven luciferase reporter gene (PPRE-Luc) that has been reported to respond to PPARγ[23][24]. […] Titration curves were generated using Graph Pad Prism®, and the IC50 value of each compound with respect to PPARγ2-induced transcriptional activity was determined.
The transcription activity was determined in 3T3-L1 cells transiently co-transfected with PPRE-driven luciferase reporter gene (PPRE-Luc) and PPARγ2 expression vector. […] After 24 h of transfection, the cells were cultured with indicated combination for 12 h. Luciferase activity was measured after 36 h.
For plasmids expressing PPARγ2, full length PPARγ2 (mouse, 1518 bp: NCBI Reference Sequence: NP_035276.2) was subcloned into CMV promoter-derived mammalian expression vector (pCS4). Plasmids for C285G, R288G mutant PPARγ2 were generated by PCR-based site-directed mutagenesis and also subcloned into CMV promoter-derived mammalian expression vector (pCS4).
3T3-L1 cells were transfected for indicated combinations of expression plasmids along with a luciferase reporter plasmid (PPRE-Luc). PPRE-Luc contains the consensus PPAR responsive element (PPRE). pCMV-β-gal was co-transfected for normalization of transfection efficiency. 24 h after transfection, cells were treated with indicated compounds for 12 h. Luciferase activities were measured using a luciferase reporter assay kit (Promega, Madison, WI, USA). Experiments were performed in triplicate and repeated at least three times.

Compound | melting point [°C] | inhibition at 25 µM (3T3-L1 preadipocytes) [%] | other results
6,8-Dihydro-5H-isoquinolino[2,3-c]quinazoline [Compound 9] | – | – | Inhibitory activity (%) on adipocyte differentiation (3T3-L1 preadipocytes; relative absorbance from Oil Red O staining at 25 μM): 62.5%
COc1ccc2cc3[n+](cc2c1OC)CCc1cc2c(cc1-3)OCO2 [Berberine] | – | 71.4 | inhibition of PPARγ2 transfection (transcriptional activity), with rosiglitazone stimulation (PPARγ2; 5 μM, with rosiglitazone): 40%; inhibition of PPARγ2 transfection (transcriptional activity), compound alone (PPARγ2; 5 μM, without rosiglitazone): 33%; IC50 (PPARγ2; 3T3-L1 cotransfected with PPARγ2 and PPRE-Luc, read-out: IC50 with respect to PPARγ2-induced transcriptional activity): 6.63 µM
O=c1c2ccccc2cc2n1CNc1ccccc1-2 [Compound 8a, 5H-Isoquinolino[2,3-c]quinazolin-8(6H)-one] | 204.3 to 206.3 | 53 | –
Cc1cccc2c(=O)n3c(cc12)-c1ccccc1NC3 [Compound 8b] | 226.5 to 228.1 | 49 | –
Cc1cccc2c(=O)n3c(cc12)-c1cc(Cl)ccc1NC3 [Compound 8c] | 240.5 to 242.1 | 30.9 | –
Cc1cccc2c(=O)n3c(cc12)-c1ccccc1OC3 [Compound 10a] | – | 23.6 | –
Cc1ccc2c(=O)n3c(cc2c1)-c1ccccc1OC3 [Compound 10b] | – | 25.7 | –
Cc1cc2cc3n(c(=O)c2cc1C)COc1ccccc1-3 [Compound 10c] | – | 60.4 | –
COc1ccc2c(=O)n3c(cc2c1OC)-c1ccccc1OC3 [Compound 10d] | – | 62.5 | –
Cc1cccc2c(=O)n3c(cc12)-c1cc2c(cc1OC3)OCO2 [Compound 10e] | – | 44.8 | –
Cc1ccc2c(=O)n3c(cc2c1)-c1cc2c(cc1OC3)OCO2 [Compound 10f] | – | 30.5 | –
Cc1ccc2cc3n(c(=O)c2c1)COc1cc2c(cc1-3)OCO2 [Compound 10g] | – | 40.9 | –
Cc1cc2cc3n(c(=O)c2cc1C)COc1cc2c(cc1-3)OCO2 [Compound 10h] | – | 38.8 | –
CN(CCOc1ccc(CC2SC(=O)NC2=O)cc1)c1ccccn1 (stereo not shown) [Rosiglitazone] | – | – | increase of luciferase expression (PPARγ2; rosiglitazone treatment, PPRE-Luc): up to 3 fold

Further lines, with some results ahead:

melting point [°C] | Compound | inhibition at 25 µM (3T3-L1 preadipocytes) [%] | other results
119.1 to 120.4 | Cc1ccc2c(=O)n3c(cc2c1)-c1ccccc1NC3 [Compound 8d] | 53.9 | –
210 to 211.5 | Cc1ccc2c(=O)n3c(cc2c1)-c1ccc(Cl)cc1NC3 [Compound 8e] | 63.3 | –
213.2 to 214.5 | Cc1ccc2cc3n(c(=O)c2c1)CNc1ccccc1-3 [Compound 8f] | 28.6 | –
202.6 to 205.1 | Cc1ccc2cc3n(c(=O)c2c1)CNc1ccc(Cl)cc1-3 [Compound 8g] | 42.4 | –
212.7 to 214.2 | Cc1cc2cc3n(c(=O)c2cc1C)CNc1ccccc1-3 [Compound 8h] | 41.6 | –
268.7 to 270.6 | Cc1cc2cc3n(c(=O)c2cc1C)CNc1ccc(Cl)cc1-3 [Compound 8i] | 49.8 | –
235.1 to 236.4 | Cc1cc2cc3n(c(=O)c2cc1C)CNc1cc(Cl)ccc1-3 [Compound 8j] | 53 | –
145.4 to 148 | COc1ccc2c(=O)n3c(cc2c1)-c1ccccc1NC3 [Compound 8k] | 56.1 | –
213.6 to 215.1 | COc1ccc2c(=O)n3c(cc2c1)-c1ccc(Cl)cc1NC3 [Compound 8l] | 39.1 | –
203.9 to 205.2 | COc1ccc2c(=O)n3c(cc2c1)-c1cc(Cl)ccc1NC3 [Compound 8m] | 28.1 | –
